Laboratory results: ChEMBL document CHEMBL4145492, “Discovery of biphenyl-substituted diarylpyrimidines as non-nucleoside reverse transcriptase inhibitors with high potency against wild-type and mutant HIV-1” (Eur J Med Chem, 2018)

Test system: Human immunodeficiency virus 1
Assay: Antiviral activity against HIV1 harboring reverse transcriptase L100I mutant infected in human MT4 cells assessed as reduction of virus-induced cytopathic effect after 4 days by MTT assay
Assay type: functional, organism-based
Details: Human immunodeficiency virus 1, MT4, 96 h

Compared with `Cc1ccnc2c1NC(=O)c1cccnc1N2C1CC1` [NEVIRAPINE], `Cc1cn([C@H]2C[C@H](N=[N+]=[N-])[C@@H](CO)O2)c(=O)[nH]c1=O` [ZIDOVUDINE] is 310-fold lower in EC50: 400 nM for the first, 1.3 nM for the second. The second is the more potent here.

Test system: Human immunodeficiency virus 1
Assay: Antiviral activity against wild type HIV1 3B infected in human MT4 cells assessed as reduction of virus-induced cytopathic effect after 4 days by MTT assay
Assay type: functional, organism-based
Details: Human immunodeficiency virus 1, 3B, MT4, 96 h

First: Cc1cc(-c2cccc(Cl)c2)cc(C)c1Nc1ccnc(Nc2ccc(C#N)cc2)n1
Second: COc1cccc(-c2cc(C)c(Nc3ccnc(Nc4ccc(C#N)cc4)n3)c(C)c2)c1
The EC50 of the first is 1.8-fold higher: 5.3 nM for the first, 2.9 nM for the second. The second is the more potent here.

`Cc1ccccc1-c1cc(C)c(Nc2ccnc(Nc3ccc(C#N)cc3)n2)c(C)c1` and `COc1ccccc1-c1cc(C)c(Nc2ccnc(Nc3ccc(C#N)cc3)n2)c(C)c1` are within 1.5-fold of each other in EC50: 2.4 nM for the first, 3 nM for the second.

First: Cc1cc(-c2cccc(C(F)(F)F)c2)cc(C)c1Nc1ccnc(Nc2ccc(C#N)cc2)n1
Second: Cc1ccnc2c1NC(=O)c1cccnc1N2C1CC1 [NEVIRAPINE]
The EC50 of the first is 2.9-fold lower: 8.4 nM for the first, 24 nM for the second. The first is the more potent here.

Work on `Cc1cn([C@H]2C[C@H](N=[N+]=[N-])[C@@H](CO)O2)c(=O)[nH]c1=O` [ZIDOVUDINE] yielded an EC50 of 2.1 nM.

Test system: not listed separately
Assay: Cytotoxicity against human MT4 cells assessed as reduction in cell viability after 4 days by MTT assay
Assay type: cell-based
Details: not given

`Cc1cc(-c2cccc(Cl)c2)cc(C)c1Nc1ccnc(Nc2ccc(C#N)cc2)n1` and `COc1cccc(-c2cc(C)c(Nc3ccnc(Nc4ccc(C#N)cc4)n3)c(C)c2)c1` are within 1.5-fold of each other in CC50 at 96 h: 2160 nM for the first, 2990 nM for the second.

Compared with `Cc1ccccc1-c1cc(C)c(Nc2ccnc(Nc3ccc(C#N)cc3)n2)c(C)c1`, `COc1ccccc1-c1cc(C)c(Nc2ccnc(Nc3ccc(C#N)cc3)n2)c(C)c1` is 4.1-fold lower in CC50 at 96 h: 3820 nM for the first, 940 nM for the second.

`Cc1cc(-c2cccc(C(F)(F)F)c2)cc(C)c1Nc1ccnc(Nc2ccc(C#N)cc2)n1` and `Cc1ccnc2c1NC(=O)c1cccnc1N2C1CC1` [NEVIRAPINE] cannot be ordered by CC50 at 96 h: 4030 nM for the first, > 4000 nM for the second.

With `Cc1cn([C@H]2C[C@H](N=[N+]=[N-])[C@@H](CO)O2)c(=O)[nH]c1=O` [ZIDOVUDINE] the CC50 at 96 h was > 2000 nM.

Test system: Human immunodeficiency virus 1
Assay: Antiviral activity against HIV1 RES056 harboring reverse transcriptase K103 N/Y181C double mutant infected in human MT4 cells assessed as reduction of virus-induced cytopathic effect after 4 days by MTT assay
Assay type: functional, organism-based
Details: Human immunodeficiency virus 1, RES056, MT4, 96 h

Compared with `Cc1ccnc2c1NC(=O)c1cccnc1N2C1CC1` [NEVIRAPINE], `Cc1cn([C@H]2C[C@H](N=[N+]=[N-])[C@@H](CO)O2)c(=O)[nH]c1=O` [ZIDOVUDINE] is lower in EC50: > 4000 nM for the first, 1.5 nM for the second.

Test system: Human immunodeficiency virus 1
Assay: Antiviral activity against HIV1 harboring reverse transcriptase K103N mutant infected in human MT4 cells assessed as reduction of virus-induced cytopathic effect after 4 days by MTT assay
Assay type: functional, organism-based
Details: Human immunodeficiency virus 1, MT4, 96 h

Compared with `Cc1ccnc2c1NC(=O)c1cccnc1N2C1CC1` [NEVIRAPINE], `Cc1cn([C@H]2C[C@H](N=[N+]=[N-])[C@@H](CO)O2)c(=O)[nH]c1=O` [ZIDOVUDINE] is 970-fold lower in EC50: 1850 nM for the first, 1.9 nM for the second.

Test system: Human immunodeficiency virus 2
Assay: Antiviral activity against HIV2 ROD infected in human MT4 cells assessed as reduction of virus-induced cytopathic effect after 4 days by MTT assay
Assay type: functional, organism-based
Details: Human immunodeficiency virus 2, ISOLATE ROD, MT4, 96 h

`Cc1cc(-c2cccc(Cl)c2)cc(C)c1Nc1ccnc(Nc2ccc(C#N)cc2)n1` and `COc1cccc(-c2cc(C)c(Nc3ccnc(Nc4ccc(C#N)cc4)n3)c(C)c2)c1` cannot be ordered by EC50: > 2160 nM for the first, > 2990 nM for the second.

`Cc1ccccc1-c1cc(C)c(Nc2ccnc(Nc3ccc(C#N)cc3)n2)c(C)c1` and `COc1ccccc1-c1cc(C)c(Nc2ccnc(Nc3ccc(C#N)cc3)n2)c(C)c1` cannot be ordered by EC50: > 3820 nM for the first, > 940 nM for the second.

In the case of `Cc1cc(-c2cccc(C(F)(F)F)c2)cc(C)c1Nc1ccnc(Nc2ccc(C#N)cc2)n1`, the EC50 is reported as > 4030 nM.

Test system: Human immunodeficiency virus 1
Assay: Antiviral activity against HIV1 harboring reverse transcriptase Y188L mutant infected in human MT4 cells assessed as reduction of virus-induced cytopathic effect after 4 days by MTT assay
Assay type: functional, organism-based
Details: Human immunodeficiency virus 1, MT4, 96 h

First: Cc1ccnc2c1NC(=O)c1cccnc1N2C1CC1 [NEVIRAPINE]
Second: Cc1cn([C@H]2C[C@H](N=[N+]=[N-])[C@@H](CO)O2)c(=O)[nH]c1=O [ZIDOVUDINE]
The EC50 of the first is higher: > 4000 nM for the first, 1.6 nM for the second. The second is the more potent here.

Test system: Human immunodeficiency virus 1
Assay: Antiviral activity against HIV1 harboring reverse transcriptase E138K mutant infected in human MT4 cells assessed as reduction of virus-induced cytopathic effect after 4 days by MTT assay
Assay type: functional, organism-based
Details: Human immunodeficiency virus 1, MT4, 96 h

First: Cc1ccnc2c1NC(=O)c1cccnc1N2C1CC1 [NEVIRAPINE]
Second: Cc1cn([C@H]2C[C@H](N=[N+]=[N-])[C@@H](CO)O2)c(=O)[nH]c1=O [ZIDOVUDINE]
The EC50 of the first is 26-fold higher: 58 nM for the first, 2.2 nM for the second. The second is the more potent here.

Test system: not listed separately
Assay: Selectivity index, ratio of CC50 for human MT4 cells to EC50 for wild type HIV1 3B
Assay type: toxicity
Details: read-out: Ratio CC50/EC50

First: Cc1cc(-c2cccc(Cl)c2)cc(C)c1Nc1ccnc(Nc2ccc(C#N)cc2)n1
Second: COc1cccc(-c2cc(C)c(Nc3ccnc(Nc4ccc(C#N)cc4)n3)c(C)c2)c1
The selectivity ratio of the first is lower: 409 for the first, 1050 for the second.

First: Cc1ccccc1-c1cc(C)c(Nc2ccnc(Nc3ccc(C#N)cc3)n2)c(C)c1
Second: COc1ccccc1-c1cc(C)c(Nc2ccnc(Nc3ccc(C#N)cc3)n2)c(C)c1
The selectivity ratio of the first is higher: 1580 for the first, 316 for the second.

Compared with `Cc1cc(-c2cccc(C(F)(F)F)c2)cc(C)c1Nc1ccnc(Nc2ccc(C#N)cc2)n1`, `Cc1cn([C@H]2C[C@H](N=[N+]=[N-])[C@@H](CO)O2)c(=O)[nH]c1=O` [ZIDOVUDINE] is higher in selectivity ratio: 477 for the first, > 971 for the second.

Test system: Human immunodeficiency virus 1
Assay: Antiviral activity against HIV1 harboring reverse transcriptase F227L/V106A double mutant infected in human MT4 cells assessed as reduction of virus-induced cytopathic effect after 4 days by MTT assay
Assay type: functional, organism-based
Details: Human immunodeficiency virus 1, MT4, 96 h

Going from `Cc1ccnc2c1NC(=O)c1cccnc1N2C1CC1` [NEVIRAPINE] to `Cc1cn([C@H]2C[C@H](N=[N+]=[N-])[C@@H](CO)O2)c(=O)[nH]c1=O` [ZIDOVUDINE], the EC50 falls from > 4000 nM to 1 nM. The second is the more potent here.

Target: Human immunodeficiency virus type 1 reverse transcriptase (Human immunodeficiency virus 1, UniProt Q72547)
Assay: Inhibition of recombinant wild type HIV1 reverse transcriptase p66/p51 using poly (rA)/anoligo (dT)16 as template/primer assessed as inhibition of biotin-dUTP incorporation after 40 mins by Pico-Green staining based fluorescence assay
Details: not given

`Cc1cc(-c2cccc(Cl)c2)cc(C)c1Nc1ccnc(Nc2ccc(C#N)cc2)n1` and `COc1cccc(-c2cc(C)c(Nc3ccnc(Nc4ccc(C#N)cc4)n3)c(C)c2)c1` are within 1.5-fold of each other in IC50: 20 nM for the first, 27 nM for the second.

`Cc1ccccc1-c1cc(C)c(Nc2ccnc(Nc3ccc(C#N)cc3)n2)c(C)c1` and `COc1ccccc1-c1cc(C)c(Nc2ccnc(Nc3ccc(C#N)cc3)n2)c(C)c1` are within 1.5-fold of each other in IC50: 18 nM for the first, 21 nM for the second.

Molecule `Cc1cc(-c2cccc(C(F)(F)F)c2)cc(C)c1Nc1ccnc(Nc2ccc(C#N)cc2)n1` has an IC50 of 58 nM.

Test system: Human immunodeficiency virus 1
Assay: Antiviral activity against HIV1 harboring reverse transcriptase Y181C mutant infected in human MT4 cells assessed as reduction of virus-induced cytopathic effect after 4 days by MTT assay
Assay type: functional, organism-based
Details: Human immunodeficiency virus 1, MT4, 96 h

First: Cc1ccnc2c1NC(=O)c1cccnc1N2C1CC1 [NEVIRAPINE]
Second: Cc1cn([C@H]2C[C@H](N=[N+]=[N-])[C@@H](CO)O2)c(=O)[nH]c1=O [ZIDOVUDINE]
The EC50 of the first is higher: > 4000 nM for the first, 1.7 nM for the second. The second is the more potent here.
